# Data: patent US9994862B2, “Rice resistant to HPPD and ACCase inhibiting herbicides” (priority 2011, dated 2018)
# Entries after “also recorded” stand apart in the source; their conditions may differ.
# Test system: common rice weeds
# Experiment: Weed control by mesotrione in rice plots
# Type: in vivo
# Settings: mesotrione alone; especially pre-plant or 2x the labeled rate of 210 gmai/ha
# Protocol: FIG. 6A-6B is a photograph of results of trait tolerance trials; weed control by mesotrione herbicide applied pre-planting was evaluated; the plots were planted with a hybrid of the HPPD tolerant line ML0831266-03093; just before planting, the plot on the right FIG. 6B received an application of mesotrione at 210 gmai/ha; the plot on the left FIG. 6A had no herbicide applied either pre-plant or post-emergence; pictures were taken four weeks after planting showing differences in weed appearance.
# Rice is tolerant to certain ACCase inhibitor herbicides, for example cyhalofop is registered for use in rice. However other ACCase herbicides kill or severely injure rice to varying degrees. […] The applied rates of both types of herbicides giving the weed control are well within the tolerance level of the respective ACCase and HPPD tolerant lines including the combined lines carrying tolerance to both HPPD and ACCase herbicides.
# Further validation of the trait involved testing the mutant line ML0831266-03093 in the presence of common rice weeds. […] This level of grass weed control was completely unexpected as mesotrione is labeled for controlling broadleaf weeds in monocot crops.
smiles,measurement,value
CS(=O)(=O)c1ccc(C(=O)C2C(=O)CCCC2=O)c([N+](=O)[O-])c1 [mesotrione],weed control by mesotrione,well controlled; also recorded: prevalent control; also recorded: Control of common weeds in rice was also achieved
